Results published in patent US20090023666A1, “Modulators of Hypoxia Inducible Factor-1 and Related Uses” (priority 2006, published 2009).
“Also recorded” adds a separate entry of the source. Like-named read-outs stand apart in the source and are kept apart here.

Columns and labels:
MES-SA-DX5 = test: Anti-proliferative activity, MES-SA-DX5; assay type: cell-based; settings: Homo sapiens
Method: (§1) FIG. 8 is a graph depicting the mRNA levels of α-1 and α-3 isoforms quantitated by real time RT-PCR (TaqMan) using fluorescent labeled TaqMan probes. Anti-proliferation (IC50 values) activity of BNC4 on indicated cell lines was determined by MTS assay. Total alpha levels (al+a3) were plotted against (1/IC50) X100 values.

SNB-78 = test: Anti-proliferative activity, SNB-78; assay type: cell-based; settings: Homo sapiens
Method: as §1

HIF-1α and HIF-2α = test: Induction of HIF-1α and HIF-2α during hypoxia (Western blotting); assay type: cell-based; settings: for HIF-1α and HIF-2α protein expression: Caki-1, A549, Panc-1, Hep3B cells, hypoxia (1% O2) 4 hours, BNC4 0.1 μM, BP228 and BP244 0.1 and 1.0 μM; for protein expression of HIF-1β, NIK, Hsp90, DR4, Bcl-2 and β-actin: same cells and treatment, specificity
Method: Caki-1 (renal cancer), A549 (lung cancer), Panc-1 (pancreatic cancer) and Hep3B (liver cancer) cells were treated with BNC4, BP228 and BP244 under hypoxic conditions. The cells were treated with indicated each compound for 4 hours under normoxic (N, 20% O2) or hypoxic (H, 1% O2) conditions. Expression of HIF-1α, HIF-1β and β-actin and other proteins was analyzed by Western blotting. The HIF-1α and HIF-2α protein levels increased in cells cultured under these conditions for 4 hours without any treatment. […] The inhibition was specific as levels of constitutively expressed HIF-1β were not affected by any of the drugs.

RPMI-8226 = test: Anti-proliferative activity, RPMI-8226; assay type: cell-based; settings: Homo sapiens
Method: as §1

HT29 = test: Anti-proliferative activity, HT29; assay type: cell-based; settings: Homo sapiens
Method: as §1

A549 sentinel line = test: Hypoxic stress response induced by cytotoxic agents in A549 sentinel line; assay type: cell-based; settings: in the presence of Gemcitabine
Description: FIGS. 7A-7E are graphs depicting the stress response of A549 Sentinel Line induced by treatment with Gemcitabine (FIG. 7A) or Gemcitabine in the presence of indicated compound (FIG. 7B-7D). Untreated (control) sample is shown in shadow. […] Similar results can be achieved for other chemotherapeutic agents which induce hypoxic stress, such as paclitaxel, carboplatin, and mitoxantrone.
Similar results were obtained with carboplatin (not shown).

SNB-75 = test: Anti-proliferative activity, SNB-75; assay type: cell-based; settings: Homo sapiens
Method: as §1

CCRF-CEM = test: Anti-proliferative activity, CCRF-CEM; assay type: cell-based; settings: Homo sapiens, read-out: Anti-Proliferative activity IC50
Method: as §1

DU145 = test: Anti-proliferative activity, DU145; assay type: cell-based; settings: Homo sapiens
Method: as §1

VEGF = test: Hypoxia induced VEGF secretion (ELISA); assay type: cell-based; settings: hypoxic conditions, Hep3B, Caki-1 16 hours (FIG. 6)
Method: FIG. 6 is two graphs depicting the effect of BP228 and BP244 on secretion of VEGF. Caki-1 cells were treated with indicated compound and cultured under hypoxia for 16 hours. VEGF levels in conditioned medium were measured using an ELISA kit.
The decrease in HIF-1 correlated closely with declining levels of VEGF secretion. […] Caki-1 cells were treated with indicated compound and cultured under hypoxia for 16 hours. VEGF levels in conditioned medium were measured using an ELISA kit.

786-O = test: Anti-proliferative activity, 786-O; assay type: cell-based; settings: Homo sapiens
Method: as §1

PC3 = test: Anti-proliferative activity, PC3; assay type: cell-based; settings: Homo sapiens
Method: as §1

tumor cell lines = test: Anti-proliferative activity in tumor cell lines (panel); assay type: cell-based, human; settings: for IC50: Homo sapiens, read-out: IC50 range over the tumor cell lines
Method: as §1

Panc-1 (PANC) = test: Anti-proliferative activity (APA), Panc-1; assay type: cell-based; settings: Homo sapiens
Method: as §1

P388 = test: Anti-proliferative activity, P388; assay type: cell-based; settings: Mus musculus
Method: as §1

MES-SA = test: Anti-proliferative activity, MES-SA; assay type: cell-based; settings: Homo sapiens, read-out: Anti-Proliferative activity IC50
Method: as §1

HCT116 = test: Anti-proliferative activity, HCT116; assay type: cell-based; settings: Homo sapiens
Method: as §1

HOP-18 = test: Anti-proliferative activity, HOP-18; assay type: cell-based; settings: Homo sapiens
Method: as §1

Panc-1 tumors = test: In vivo activity against Panc-1 human pancreatic xenograft; design: species or system nude mice; settings: SC, CI
Method: Panc-1 tumors were injected subcutaneously (sc) into the flanks of male nude mice. After the tumors reached 60 mg in size, osmotic pumps (model 2002, Alzet Inc., flow rate 0.5 μl/hr) containing 15 mg/ml of BP244 were implanted sc on the opposite sides of the mice. The control animals received pumps containing vehicle (10% captisol, Cyclex Inc.). The mice treated with standard chemotherapy agent received intra-peritoneal injections of Gemcitabine at 40 mg/kg every 3 days for 4 treatments (q3d×4). The experiment was terminated when the control group tumor size reached an average of about 1 gram. Upon termination, the mice were weighed, sacrificed and their tumors excised. The tumors were weighed and the mean tumor weight per group was calculated.
A titration experiment was first performed on BP244 to determine its minimum effective dose against Panc-1 human pancreatic xenograft in nude mice. BP244 (sc, osmotic pumps) was first tested at 15, 10 and 5 mg/ml using Alzet pumps as in previous experiments. Gemcitabine (40 mg/kg; q3d×4, i.p.) was also included in the experiment as a comparison. […]

[1] = MES-SA/Dx5, read-out: Anti-Proliferative activity IC50
[2] = SNB-78, read-out: Anti-Proliferative activity IC50
[3] = RPMI-8226, read-out: Anti-Proliferative activity IC50
[4] = HT-29, read-out: Anti-Proliferative activity IC50
[5] = SNB-75, read-out: Anti-Proliferative activity IC50
[6] = DU-145, read-out: Anti-Proliferative activity IC50
[7] = 786-0, read-out: Anti-Proliferative activity IC50
[8] = PC-3, read-out: Anti-Proliferative activity IC50
[9] = PANC-1, read-out: Anti-Proliferative activity IC50
[10] = P388, read-out: Anti-Proliferative activity IC50
[11] = HCT-116, read-out: Anti-Proliferative activity IC50
[12] = HOP-18, read-out: Anti-Proliferative activity IC50

C[C@@H]1O[C@@H](O[C@@H]2C=C3CC[C@@H]4[C@H](CC[C@]5(C)[C@@H](c6ccc(=O)oc6)CC[C@]45O)[C@@]3(C)CC2)[C@H](O)[C@H](O)[C@H]1N [BP244]
IC50 (MES-SA-DX5; [1]): 13.5 nM | IC50 (SNB-78; [2]): 7.7 nM | HIF-1α and HIF-2α protein expression (HIF-1α and HIF-2α): inhibition of hypoxia-mediated HIF-1α induction; also recorded: almost complete inhibition | protein expression of HIF-1β, NIK, Hsp90, DR4, Bcl-2 and β-actin (HIF-1α and HIF-2α): no effect | IC50 (RPMI-8226; [3]): 10.7 nM | IC50 (HT29; [4]): 8.2 nM | stress response in A549 sentinel line induced by Gemcitabine (A549 sentinel line): can inhibit the stress response | IC50 (SNB-75; [5]): 12.9 nM | IC50 (CCRF-CEM): 4.7 nM | IC50 (DU145; [6]): 6.7 nM | VEGF secretion (VEGF): reduce VEGF secretion | IC50 (786-O; [7]): 8 nM | IC50 (PC3; [8]): 5.7 nM | IC50 (tumor cell lines): 5 to 14 nM | IC50 (Panc-1 (PANC); [9]): 6.6 nM | IC50 (P388; [10]): > 1000 nM | IC50 (MES-SA): 8 nM | IC50 (HCT116; [11]): 5.1 nM | IC50 (HOP-18; [12]): 7.3 nM | % TGI (d24) (Panc-1 tumors; 5 mg/ml): 71% | % Wt Change (d24) (Panc-1 tumors; 5 mg/ml): −4.63% | Av. Tumor Weight (Panc-1 tumors; 5 mg/ml): 524.4 mg | % TGI (d24) (Panc-1 tumors; 10 mg/ml): 98% | % Wt Change (d24) (Panc-1 tumors; 10 mg/ml): 0.93% | Av. Tumor Weight (Panc-1 tumors; 10 mg/ml): 107.3 mg | % TGI (d24) (Panc-1 tumors; 15 mg/ml): 102% | % Wt Change (d24) (Panc-1 tumors; 15 mg/ml): 5.26% | Av. Tumor Weight (Panc-1 tumors; 15 mg/ml): 44.2 mg

C[C@]12CC/C(=N\OCCN3CCCCC3)C=C1CC[C@@H]1[C@@H]2CC[C@]2(C)[C@@H](c3ccc(=O)oc3)CC[C@]12O [BP228]
IC50 (MES-SA-DX5; [1]): 15.8 nM | IC50 (SNB-78; [2]): 15.9 nM | HIF-1α and HIF-2α protein expression (HIF-1α and HIF-2α): inhibition of hypoxia-mediated HIF-1α induction; also recorded: almost complete inhibition | protein expression of HIF-1β, NIK, Hsp90, DR4, Bcl-2 and β-actin (HIF-1α and HIF-2α): no effect | IC50 (RPMI-8226; [3]): 25.5 nM | IC50 (HT29; [4]): 18.9 nM | stress response in A549 sentinel line induced by Gemcitabine (A549 sentinel line): can inhibit the stress response | IC50 (SNB-75; [5]): 19.2 nM | IC50 (CCRF-CEM): 7 nM | IC50 (DU145; [6]): 8.8 nM | VEGF secretion (VEGF): Attenuate Hypoxia Induced VEGF Secretion | IC50 (786-O; [7]): 8.9 nM | IC50 (PC3; [8]): 6.2 nM | IC50 (tumor cell lines): 640 nM | IC50 (Panc-1 (PANC); [9]): 8.1 nM | IC50 (P388; [10]): > 1000 nM | IC50 (MES-SA): 11.4 nM | IC50 (HCT116; [11]): 6.4 nM | IC50 (HOP-18; [12]): 18.9 nM | % TGI (d24) (Panc-1 tumors; 10 mg/ml): 66% | % Wt Change (d24) (Panc-1 tumors; 10 mg/ml): 1.97% | Av. Tumor Weight (Panc-1 tumors; 10 mg/ml): 488.0 mg | % TGI (d24) (Panc-1 tumors; 15 mg/ml): 79% | % Wt Change (d24) (Panc-1 tumors; 15 mg/ml): 4.88% | Av. Tumor Weight (Panc-1 tumors; 15 mg/ml): 327.0 mg

C[C@@H]1O[C@@H](O[C@@H]2C=C3CC[C@@H]4[C@H](CC[C@]5(C)[C@@H](c6ccc(=O)oc6)CC[C@]45O)[C@@]3(C)CC2)[C@H](O)[C@H](O)[C@H]1O [BNC4, proscillaridin, reference compound]
IC50 (MES-SA-DX5; MES-SA-DX5, Uterine, read-out: Anti-Proliferative activity IC50): 11.6 nM | IC50 (SNB-78; SNB-78, CNS, read-out: Anti-Proliferative activity IC50): 10.1 nM | HIF-1α and HIF-2α protein expression (HIF-1α and HIF-2α): inhibition of hypoxia-mediated HIF-1α induction; also recorded: almost complete inhibition | protein expression of HIF-1β, NIK, Hsp90, DR4, Bcl-2 and β-actin (HIF-1α and HIF-2α): no effect | IC50 (RPMI-8226; RPMI-8226, Myeloma, read-out: Anti-Proliferative activity IC50): 18.2 nM | IC50 (HT29; HT-29, HT29, Colon, read-out: Anti-Proliferative activity IC50): 8.9 nM | stress response in A549 sentinel line induced by Gemcitabine (A549 sentinel line): can inhibit the stress response | IC50 (SNB-75; SNB-75, CNS, read-out: Anti-Proliferative activity IC50): 16.8 nM | IC50 (CCRF-CEM; Leukemia): 6.3 nM | IC50 (DU145; DU-145, DU145, Prostate (AR-), read-out: Anti-Proliferative activity IC50): 6.2 nM | VEGF secretion (VEGF): reduce VEGF secretion | IC50 (786-O; 786-0, 786-O, Renal, read-out: Anti-Proliferative activity IC50): 8.4 nM | IC50 (PC3; PC-3, PC3, Prostate, read-out: Anti-Proliferative activity IC50): 4.1 nM | IC50 (tumor cell lines; range over cell lines of Table 2): 418 nM | sensitivity of cell lines expressing very low levels of α-chain (tumor cell lines; SNB75 and RPMI-8226 compared with A549 or PC-3, MTS assay): very resistant | IC50 (Panc-1 (PANC); PANC-1, PANC, Pancreatic, read-out: Anti-Proliferative activity IC50): 3.8 nM | IC50 (P388; P388, Leukemia, read-out: Anti-Proliferative activity IC50): > 1000 nM | IC50 (MES-SA; Uterine): 8.7 nM | IC50 (HCT116; HCT-116, HCT116, Colon, read-out: Anti-Proliferative activity IC50): 8.1 nM | IC50 (HOP-18; HOP-18, NSCL, read-out: Anti-Proliferative activity IC50): 9.2 nM | % TGI (d24) (Panc-1 tumors; 15 mg/ml): 87% | % Wt Change (d24) (Panc-1 tumors; 15 mg/ml): −2.69% | Av. Tumor Weight (Panc-1 tumors; 15 mg/ml): 243.9 mg
